In patent US4088793A, “Control of nitrosamine formation in nitrite cured meat” (Canada Packers Limited, priority 1977, dated 1978):

Assays:
[1] = Volatile nitrosamine content of cook-out fat from fried nitrite-cured bacon slices streaked with test compound; conditions: for blocking of formation of nitrosamines: 20 ppm level of incorporation in the meat; for inhibition of nitrosamine formation: in comparison with the untreated controls
Text: The mechanism by which the 1,2-dihydro- and 1,2,3,4-tetrahydro-6-hydroxyquinoline nitroxides interfere with the formation of nitrosamines at high temperature is not completely understood. However, the invention is not limited by any particular theory of operation. It has been shown by a series of tests with representative compounds that up to 100% of the nitrosamines which normally appear in fried bacon have been eliminated.
The nitroxide compounds from ethoxyquin and from dihydroethoxyquin, prepared as in Examples 1 and 2, respectively, were dissolved in separate portions of winterized soya oil to provide a 4.5% concentration and the resulting solutions were streaked on bacon slices, which had undergone a conventional nitrite cure and plant processing, in quantities providing levels of 1,2-dihydro-2,2,4-trimethyl-6-hydroxy-quinoline nitroxide of from 1 ppm to 100 ppm in the meat for one series of tests and levels of 1 - 20 ppm of the corresponding 1,2,3,4-tetrahydroquinoline nitroxide compound in the meat for another series of tests. Control slices of bacon were streaked with the oil alone. The bacon slices were fried under standardized conditions and the cook-out fat was analyzed for volatile nitrosamine content.

experimental animals = conditions: tests on experimental animals; cited from earlier work

With “1,2,3,4-tetrahydro-2,2,4-trimethyl-6-hydroxy-quinoline nitroxide [Nitroxide from Dihydro Ethoxyquin]” the “blocking of formation of nitrosamines” value [1] was “essentially blocked formation of nitrosamines”, the “Nitrosamines In Cook-Out Fat, Test Product” value (“Nitrosamines In Cook-Out Fat” below) ([1]; Example 13: 20 ppm in meat, control product 35 ppb) was 3 ppb and the “Nitrosamines In Cook-Out Fat” value ([1]; Example 14: 10 ppm in meat, control product 35 ppb) was 13 ppb. The “Nitrosamines In Cook-Out Fat” value ([1]; Example 15: 1 ppm in meat, control product 35 ppb) was 20 ppb, the “Nitrosamines In Cook-Out Fat” value ([1]; Example 16: 20 ppm in meat, control product 36 ppb, figures below 3 ppb not reliable) was 2 ppb and the “Nitrosamines In Cook-Out Fat” value ([1]; Example 17: 10 ppm in meat, control product 36 ppb) was 6 ppb. The “Nitrosamines In Cook-Out Fat” value ([1]; Example 18: 1 ppm in meat, control product 36 ppb) was 22 ppb and the “inhibition of nitrosamine formation” value [1] was “excellent inhibition of nitrosamine formation”.
In the case of “1,2-dihydro-2,2,4-trimethyl-6-hydroxy-quinoline nitroxide [Nitroxide from Ethoxyquin]”, the “blocking of formation of nitrosamines” value [1] is reported as “essentially blocked formation of nitrosamines”, the “Nitrosamines In Cook-Out Fat” value ([1]; Example 3: 100 ppm in meat, control product 18 ppb, figures below 3 ppb not reliable) is reported as 0 ppb and the “Nitrosamines In Cook-Out Fat” value ([1]; Example 4: 50 ppm in meat, control product 19 ppb, figures below 3 ppb not reliable) is reported as 0 ppb. For the same compound, the “Nitrosamines In Cook-Out Fat” value ([1]; Example 5: 10 ppm in meat, control product 19 ppb) was 3 ppb, the “Nitrosamines In Cook-Out Fat” value ([1]; Example 6: 1 ppm in meat, control product 19 ppb) was 13 ppb and the “Nitrosamines In Cook-Out Fat” value ([1]; Example 7: 20 ppm in meat, control product 8 ppb, figures below 3 ppb not reliable) was 0 ppb. The “Nitrosamines In Cook-Out Fat” value ([1]; Example 8: 10 ppm in meat, control product 8 ppb, figures below 3 ppb not reliable) was 0 ppb, the “Nitrosamines In Cook-Out Fat” value ([1]; Example 9: 1 ppm in meat, control product 8 ppb, figures below 3 ppb not reliable) was 2 ppb and the “Nitrosamines In Cook-Out Fat” value ([1]; Example 10: 20 ppm in meat, control product 38 ppb, figures below 3 ppb not reliable) was 2 ppb. For the same compound, the “Nitrosamines In Cook-Out Fat” value ([1]; Example 11: 10 ppm in meat, control product 38 ppb) was 5 ppb, the “Nitrosamines In Cook-Out Fat” value ([1]; Example 12: 1 ppm in meat, control product 38 ppb) was 16 ppb and the “inhibition of nitrosamine formation” value [1] was “excellent inhibition of nitrosamine formation”.
In the case of `O=NN1CCCC1` [N-nitrosopyrrolidine], the carcinogenicity (experimental animals) is given as “carcinogenic”.
For `CN(C)N=O` [dimethylnitrosamine], the carcinogenicity (experimental animals) is given as “carcinogenic”.
